12 compounds from ChEMBL document CHEMBL1201862, “PubChem BioAssay data set” (2004) can be followed below.

Calls of active or inactive are those of the source.

For orientation: AC50 means the concentration at which the activity in the assay is half-maximal. What is called EC50 is the concentration that produces a half-maximal response. The term CC50 denotes the concentration at which the toxic effect on the cells reaches its halfway point.

Test [1] concerns the target Melanocortin receptor 4 (Homo sapiens, UniProt P32245). As to the kind of experiment: inhibitors of MC4R cAMP signaling – cell-based, TR-FRET, biased antagonists, dose response (AID 602298).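 Note: antagonist potency against agonist-stimulated cAMP production.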 Type of test: functional.
Test [2] can be described thus: non-specific 3'UTR reporter inhibition in Clone20-Shn3RL – cell-based, Renilla luciferase, cherry-picked, counter-screen for Shn3 inhibitor project, dose response (AID 624133). Type of test: functional. (The purpose of a counterscreen is to sort out artefacts and off-target activity.)
In test [3] the target is Nucleotide-binding oligomerization domain-containing protein 2 (Homo sapiens, UniProt Q9HC29). Nature of the test: inhibition of NOD2-driven NF-kB reporter – cell-based, luminescence, uHTS, HEK293 (AID 1566). Type of test: functional.
Chain of Nucleotide-binding oligomerization domain-containing protein 2 (Q9HC29 whole entry, the tested form may be a part): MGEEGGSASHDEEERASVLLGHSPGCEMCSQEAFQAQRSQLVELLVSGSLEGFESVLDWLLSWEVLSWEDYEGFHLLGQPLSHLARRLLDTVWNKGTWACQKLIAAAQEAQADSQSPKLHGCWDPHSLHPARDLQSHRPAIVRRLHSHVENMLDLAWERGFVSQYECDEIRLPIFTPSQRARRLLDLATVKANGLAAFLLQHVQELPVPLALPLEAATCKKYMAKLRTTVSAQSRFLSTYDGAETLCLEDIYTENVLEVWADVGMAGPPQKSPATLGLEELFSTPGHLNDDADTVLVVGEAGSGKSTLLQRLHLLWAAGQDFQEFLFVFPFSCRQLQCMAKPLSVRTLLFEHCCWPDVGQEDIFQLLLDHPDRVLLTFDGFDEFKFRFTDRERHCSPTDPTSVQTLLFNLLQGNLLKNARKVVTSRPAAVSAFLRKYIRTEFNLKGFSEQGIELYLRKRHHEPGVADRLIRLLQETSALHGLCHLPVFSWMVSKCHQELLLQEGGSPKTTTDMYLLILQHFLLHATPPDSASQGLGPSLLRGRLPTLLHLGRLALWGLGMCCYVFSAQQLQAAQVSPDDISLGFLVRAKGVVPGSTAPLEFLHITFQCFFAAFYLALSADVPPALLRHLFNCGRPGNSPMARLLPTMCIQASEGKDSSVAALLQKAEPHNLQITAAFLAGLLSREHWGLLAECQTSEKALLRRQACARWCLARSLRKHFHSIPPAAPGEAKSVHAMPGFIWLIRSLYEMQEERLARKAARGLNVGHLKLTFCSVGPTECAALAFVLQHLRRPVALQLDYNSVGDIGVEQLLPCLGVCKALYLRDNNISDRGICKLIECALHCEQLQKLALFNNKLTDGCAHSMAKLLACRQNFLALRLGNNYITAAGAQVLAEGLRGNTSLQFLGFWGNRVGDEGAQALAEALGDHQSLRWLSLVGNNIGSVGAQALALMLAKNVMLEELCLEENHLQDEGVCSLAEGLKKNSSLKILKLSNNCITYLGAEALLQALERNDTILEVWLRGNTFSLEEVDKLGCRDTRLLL
Test [4] has as its system INS1. As to the kind of experiment: INS-1E survival protection against cytokine death – cell-based, luminescence, retest, dose response (AID 449756).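 Note: cell death triggered by IL-1 beta plus TNF-alpha plus IFN-gamma mixture; protective hits raise ATP signal compared with cytokine alone wells.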 Type of test: functional. The following applies: Rattus norvegicus.
The target in test [5] is Beta Lactamase (Pseudomonas aeruginosa, UniProt Q932Y6). As to the kind of experiment: BLA reporter interference, concentration series – BLA reporter cells, FRET fluorescence, artefact control for TLR9-MyD88 binding inhibitor project, dose response (AID 588341).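 Note: cell based assay in CHO-K1 cells stably expressing beta-lactamase.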 The class given is cell-based.
Chain of Beta Lactamase (Q932Y6 whole entry, the tested form may be a part): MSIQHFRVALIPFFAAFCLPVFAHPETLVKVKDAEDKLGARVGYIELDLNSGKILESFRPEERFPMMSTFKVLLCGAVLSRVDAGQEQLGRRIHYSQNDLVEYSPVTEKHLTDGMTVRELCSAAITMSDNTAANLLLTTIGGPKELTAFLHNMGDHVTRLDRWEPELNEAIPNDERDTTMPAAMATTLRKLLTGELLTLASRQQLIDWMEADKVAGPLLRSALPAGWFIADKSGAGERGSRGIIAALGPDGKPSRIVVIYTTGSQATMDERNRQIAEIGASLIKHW
The test system of test [6] is CHO. Nature of the test: CHO cell viability loss, potency – luminescence, cytotoxicity control for TLR9-MyD88 binding inhibitor project, dose response (AID 588339).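 Note: CHO cells stably coexpressing TLR9 and MyD88 fusions from primary screen; compound exposure lasted 48 hours before viability readout.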 The following applies: Cricetulus griseus. The class given is functional, cell-based, hamster.
The target of test [7] is T1, Fatty acid synthase (Homo sapiens, UniProt P49327). Nature of the test: inhibition of human FAS-TE enzyme activity – biochemical, endpoint fluorescence intensity, uHTS hits, dose response (AID 624327).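 Note: fluorescence from hydrolysis of an O-methyl fluorescein acyl ester substrate by the enzyme.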 Type of test: functional.
T1 sequence (P49327 whole entry): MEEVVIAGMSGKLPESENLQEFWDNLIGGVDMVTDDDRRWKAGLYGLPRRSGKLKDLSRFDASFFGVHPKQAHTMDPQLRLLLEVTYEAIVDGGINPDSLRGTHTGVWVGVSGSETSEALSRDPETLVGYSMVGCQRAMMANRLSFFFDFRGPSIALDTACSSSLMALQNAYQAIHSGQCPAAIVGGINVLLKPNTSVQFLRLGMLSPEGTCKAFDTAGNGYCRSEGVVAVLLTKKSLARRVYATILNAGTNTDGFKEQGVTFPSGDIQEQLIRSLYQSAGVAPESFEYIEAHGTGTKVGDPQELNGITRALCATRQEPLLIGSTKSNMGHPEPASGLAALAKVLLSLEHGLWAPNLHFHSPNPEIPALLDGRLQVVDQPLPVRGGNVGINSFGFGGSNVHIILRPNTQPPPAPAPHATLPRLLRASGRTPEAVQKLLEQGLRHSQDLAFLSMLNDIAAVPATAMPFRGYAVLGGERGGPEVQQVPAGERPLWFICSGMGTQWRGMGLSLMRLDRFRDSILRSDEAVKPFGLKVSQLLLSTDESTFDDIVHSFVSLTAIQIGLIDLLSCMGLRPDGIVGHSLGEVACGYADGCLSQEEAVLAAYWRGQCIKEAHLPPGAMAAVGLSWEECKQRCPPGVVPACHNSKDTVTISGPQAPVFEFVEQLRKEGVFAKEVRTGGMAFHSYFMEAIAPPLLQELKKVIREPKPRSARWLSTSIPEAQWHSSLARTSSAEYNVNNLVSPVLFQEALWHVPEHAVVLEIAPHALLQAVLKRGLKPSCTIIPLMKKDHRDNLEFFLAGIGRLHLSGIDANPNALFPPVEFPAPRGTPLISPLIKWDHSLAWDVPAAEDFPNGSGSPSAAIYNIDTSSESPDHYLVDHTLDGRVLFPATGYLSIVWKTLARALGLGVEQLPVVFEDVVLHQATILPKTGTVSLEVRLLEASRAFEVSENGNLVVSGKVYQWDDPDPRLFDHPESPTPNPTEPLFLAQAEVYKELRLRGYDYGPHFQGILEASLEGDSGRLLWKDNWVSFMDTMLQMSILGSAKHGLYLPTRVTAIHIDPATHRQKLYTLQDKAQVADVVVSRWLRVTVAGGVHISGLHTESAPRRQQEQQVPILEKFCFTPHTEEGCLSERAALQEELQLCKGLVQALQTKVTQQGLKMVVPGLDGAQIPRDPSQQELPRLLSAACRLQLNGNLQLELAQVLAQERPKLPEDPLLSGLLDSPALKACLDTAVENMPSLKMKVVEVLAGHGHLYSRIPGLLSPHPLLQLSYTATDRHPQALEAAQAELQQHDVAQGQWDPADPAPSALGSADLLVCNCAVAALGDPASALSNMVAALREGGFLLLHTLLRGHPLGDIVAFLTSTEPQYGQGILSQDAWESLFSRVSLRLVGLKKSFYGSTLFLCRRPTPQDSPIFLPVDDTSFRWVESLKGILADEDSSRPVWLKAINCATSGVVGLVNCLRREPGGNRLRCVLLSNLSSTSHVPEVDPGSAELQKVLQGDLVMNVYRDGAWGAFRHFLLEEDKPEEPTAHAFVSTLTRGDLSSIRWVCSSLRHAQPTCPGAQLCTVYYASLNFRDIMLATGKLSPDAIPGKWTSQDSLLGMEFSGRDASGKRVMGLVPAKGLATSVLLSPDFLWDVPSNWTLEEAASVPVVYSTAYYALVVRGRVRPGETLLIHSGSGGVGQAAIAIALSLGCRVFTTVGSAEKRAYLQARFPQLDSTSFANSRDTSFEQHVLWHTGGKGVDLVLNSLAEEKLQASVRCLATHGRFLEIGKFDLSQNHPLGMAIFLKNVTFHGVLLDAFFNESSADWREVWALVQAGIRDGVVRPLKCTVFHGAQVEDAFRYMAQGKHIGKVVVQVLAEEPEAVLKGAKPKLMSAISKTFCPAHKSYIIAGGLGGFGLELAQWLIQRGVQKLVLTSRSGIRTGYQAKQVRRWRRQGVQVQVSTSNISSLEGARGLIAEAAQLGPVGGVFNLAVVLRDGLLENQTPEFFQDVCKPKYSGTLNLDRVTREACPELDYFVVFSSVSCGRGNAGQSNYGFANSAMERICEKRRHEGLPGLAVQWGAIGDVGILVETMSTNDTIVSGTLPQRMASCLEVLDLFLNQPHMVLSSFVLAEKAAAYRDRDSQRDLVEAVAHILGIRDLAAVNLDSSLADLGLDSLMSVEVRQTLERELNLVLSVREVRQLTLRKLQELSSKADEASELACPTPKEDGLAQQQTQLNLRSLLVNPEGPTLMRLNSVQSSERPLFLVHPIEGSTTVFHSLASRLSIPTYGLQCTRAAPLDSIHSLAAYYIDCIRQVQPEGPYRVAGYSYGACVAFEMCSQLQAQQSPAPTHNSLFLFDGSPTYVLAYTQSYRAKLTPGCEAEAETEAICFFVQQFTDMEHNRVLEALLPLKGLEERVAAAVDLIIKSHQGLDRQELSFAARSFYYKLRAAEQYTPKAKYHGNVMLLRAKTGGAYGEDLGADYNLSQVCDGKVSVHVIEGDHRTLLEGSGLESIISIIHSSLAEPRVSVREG
Test [8] has as its system HEK293. Nature of the test: cells. Type of test: functional, cell-based. The following applies: Homo sapiens.
The target of test [9] is T1, Fatty acid synthase. As to the kind of experiment: inhibition of human FAS-TE enzyme activity – biochemical, kinetic fluorescence intensity, dose response (AID 624326).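 Note: rate of fluorescence rise from hydrolysis of a fluorogenic O-methyl fluorescein ester substrate.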 Type of test: functional.
Test [10] has as its system HEK293. Nature of the test: inhibition of NOD1-driven NF-kB reporter – cell-based, luminescence, uHTS, primary screen (AID 1578). Type of test: functional. The note with it: Homo sapiens.
Test [11] can be described thus: reduction of Shn3 3'UTR-driven luciferase in osteoblasts – cell-based, Clone20 osteoblasts, firefly luciferase, cherry-picked, dose response (AID 624132).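 Note: firefly luciferase luminescence from reporter carrying the Shn3 3'UTR in osteoblasts.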 Type of test: functional.
Test [12] has as its system HEK293. Nature of the test: NOD2 signaling inhibitors in MDP-stimulated cells, cell-based, uHTS, luminescence (AID 2001). The note with it: Homo sapiens. The class given is functional.
A short description of test [13]: loss of viability in HepG2 cells – cell-based, CellTiter-Glo, cherry-picked, cytotoxicity control for Shn3 inhibitor project, dose response (AID 624134). The class given is functional. Background: ATP-based viability assays read luminescence as a measure of living cells.
Test [14] deals with HEK293. As to the kind of experiment: cells. Type of test: functional, cell-based. The note with it: Homo sapiens. The source holds these as a separate data set.
Test [15] can be described thus: cAMP pathway inhibition in counterscreen cell line – TR-FRET cAMP detection, counter-screen for MC4R biased antagonist project, dose response (AID 602305).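 Note: U2OS cells stimulated with forskolin near its EC80 as the cAMP inducer; potency is for inhibition of forskolin-stimulated cAMP signaling.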 Type of test: functional, cell-based.
The target of test [16] is T2, Trace amine-associated receptor 1 (Homo sapiens, UniProt Q96RJ0).
T2 sequence (Q96RJ0 whole entry): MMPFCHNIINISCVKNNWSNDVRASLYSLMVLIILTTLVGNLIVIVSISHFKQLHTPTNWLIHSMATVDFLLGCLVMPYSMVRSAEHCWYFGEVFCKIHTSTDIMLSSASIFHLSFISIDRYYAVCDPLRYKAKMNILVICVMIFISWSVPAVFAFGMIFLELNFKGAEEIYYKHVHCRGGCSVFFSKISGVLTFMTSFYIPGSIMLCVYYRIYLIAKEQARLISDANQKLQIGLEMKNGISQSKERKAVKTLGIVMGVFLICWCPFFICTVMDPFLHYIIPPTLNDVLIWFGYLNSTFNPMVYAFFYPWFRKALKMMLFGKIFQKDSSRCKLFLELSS
As to the kind of experiment: Counterscreen for agonists of the human trace amine associated receptor 1 (hTAAR1): Fluorescence-based cell-based high throughput dose response assay to identify hTAAR1 agonist that also desensitize TAAR1 receptor response. The class given is functional.

Test [17] addresses T2, Trace amine-associated receptor 1. As to the kind of experiment: Fluorescence-based cell-based high throughput dose response assay to identify agonists of the human trace amine associated receptor 1 (TAAR1). Type of test: functional.
Test [18] in a line: cells. The class given is functional, cell-based.
A short description of test [19]: cells. The class given is functional, cell-based. This is another data set of the same source.
The target in test [20] is Mu-type opioid receptor (Homo sapiens, UniProt P35372). Type of test: functional, cell-based.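 Note: U2OS cells with beta-arrestin recruitment to OPRM1 by beta-gal complementation.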
Chain of Mu-type opioid receptor (P35372 whole entry): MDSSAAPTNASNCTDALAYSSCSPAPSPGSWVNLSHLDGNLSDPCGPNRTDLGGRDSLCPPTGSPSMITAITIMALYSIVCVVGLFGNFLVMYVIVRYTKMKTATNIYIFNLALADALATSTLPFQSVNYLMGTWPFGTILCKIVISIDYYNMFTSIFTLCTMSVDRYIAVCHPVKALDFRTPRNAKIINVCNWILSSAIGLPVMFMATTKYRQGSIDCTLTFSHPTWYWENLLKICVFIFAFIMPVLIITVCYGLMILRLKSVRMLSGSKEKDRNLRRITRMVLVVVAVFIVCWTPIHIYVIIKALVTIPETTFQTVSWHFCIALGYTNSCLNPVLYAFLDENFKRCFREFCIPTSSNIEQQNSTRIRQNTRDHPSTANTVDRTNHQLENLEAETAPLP
The target of test [21] is 5-hydroxytryptamine receptor 2A (Mus musculus, UniProt P35363). The class given is functional, cell-based.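 Note: CHO-K1 cells with tagged receptor and beta-arrestin; agonist potency measured as compound-induced activation of the receptor.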
In test [22] the target is Voltage-gated inwardly rectifying potassium channel KCNH2 (Homo sapiens, UniProt Q12809). The following applies: Potency.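 Note: confirmatory quantitative high-throughput screen measuring inhibition of hERG channel activity.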
Test [23] has as its target T3, High affinity choline transporter 1 (Homo sapiens, UniProt Q9GZV3).
T3 sequence (Q9GZV3 whole entry): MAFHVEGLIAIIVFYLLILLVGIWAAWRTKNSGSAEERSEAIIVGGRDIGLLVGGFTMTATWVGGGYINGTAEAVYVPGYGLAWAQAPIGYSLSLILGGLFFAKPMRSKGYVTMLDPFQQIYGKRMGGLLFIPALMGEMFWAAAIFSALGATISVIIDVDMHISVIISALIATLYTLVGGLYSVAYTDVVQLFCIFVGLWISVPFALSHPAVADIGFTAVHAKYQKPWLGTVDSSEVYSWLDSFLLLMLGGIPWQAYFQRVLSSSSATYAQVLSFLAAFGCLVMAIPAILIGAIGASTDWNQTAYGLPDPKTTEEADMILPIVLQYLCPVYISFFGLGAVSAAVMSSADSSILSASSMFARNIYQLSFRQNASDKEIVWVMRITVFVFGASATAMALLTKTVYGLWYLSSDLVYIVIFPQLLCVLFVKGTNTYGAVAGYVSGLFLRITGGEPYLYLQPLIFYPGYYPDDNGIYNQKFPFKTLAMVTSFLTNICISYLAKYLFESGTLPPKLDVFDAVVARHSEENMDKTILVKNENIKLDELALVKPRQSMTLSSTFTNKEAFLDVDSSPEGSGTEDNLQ
Nature of the test: human choline transporter blockers, potency – cell-based, 10-point CRC, membrane potential dye, dose response (AID 588401).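 Note: membrane potential dye fluorescence of choline-evoked depolarization via CHT.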 The class given is functional.

Test [24] addresses T3, High affinity choline transporter 1. Nature of the test: human choline transporter blockers, potency – cell-based, 5-point CRC, membrane potential dye, dose response (AID 504840). The class given is functional.
Test [25] shares this target. As to the kind of experiment: human choline transporter radiolabel uptake blockers – cell-based, 3H-choline uptake, CHT LV-AA trafficking mutant, CRC, dose response (AID 602208). Type of test: functional.
Test [26] deals with Melanin-concentrating hormone receptor 1 (Homo sapiens, UniProt Q99705). As to the kind of experiment: Late-stage fluorescence-based counterscreen for antagonists of the G-protein coupled receptor 7 (GPR7): cell-based dose response assay to identify antagonists of the melanin-concentrating hormone receptor 1 (MCHR1) Set 5. The class given is functional.
Chain of Melanin-concentrating hormone receptor 1 (Q99705 whole entry): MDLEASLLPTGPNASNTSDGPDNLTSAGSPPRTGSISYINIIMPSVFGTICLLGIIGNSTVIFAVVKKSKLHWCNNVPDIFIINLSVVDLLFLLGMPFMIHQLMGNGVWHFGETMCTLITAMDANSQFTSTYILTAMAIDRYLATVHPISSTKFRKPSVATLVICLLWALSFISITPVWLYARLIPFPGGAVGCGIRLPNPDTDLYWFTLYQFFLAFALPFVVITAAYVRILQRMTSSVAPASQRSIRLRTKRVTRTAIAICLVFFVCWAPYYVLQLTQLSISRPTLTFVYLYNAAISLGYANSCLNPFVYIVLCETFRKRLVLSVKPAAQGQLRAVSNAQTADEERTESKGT
Test [27] addresses T4, Neuropeptides B/W receptor type 1 (Homo sapiens, UniProt P48145).
T4 sequence (P48145 whole entry): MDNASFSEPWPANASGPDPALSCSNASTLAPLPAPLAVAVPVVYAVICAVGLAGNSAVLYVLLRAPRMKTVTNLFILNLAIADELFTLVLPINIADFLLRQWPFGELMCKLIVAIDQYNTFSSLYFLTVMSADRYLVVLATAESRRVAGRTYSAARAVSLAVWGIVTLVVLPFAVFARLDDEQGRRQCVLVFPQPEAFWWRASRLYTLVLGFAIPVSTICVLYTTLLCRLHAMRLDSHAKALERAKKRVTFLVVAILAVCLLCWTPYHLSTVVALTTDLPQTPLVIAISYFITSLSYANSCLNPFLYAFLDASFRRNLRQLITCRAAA
As to the kind of experiment: human NPBW1 receptor blockade, IC50 – cell-based, fluorescence, dose response, set 5, late-stage follow-up (AID 588566). The class given is functional.

Test [28] in a line: inhibition of ARNT PAS-B/TACC3 complex formation – biochemical, AlphaScreen, cherry-picked samples, confirmation (AID 651703).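 Note: His-tagged ARNT PAS-B domain paired with GST-TACC3 E629A dimer coactivator fragment; potency of inhibitors that break up the complex and lower AlphaScreen signal.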 Type of test: functional, Homo sapiens. A general note: In Alpha technology, singlet oxygen from a donor bead excites a nearby acceptor bead.
Test [29] is described as follows: THP-1 cell cytotoxicity, cytotoxicity control, set 4 (AID 504911). The class given is functional. The note with it: Mycobacterium tuberculosis.
The nature of test [30]: Vero cell cytotoxicity, cytotoxicity control for M. tuberculosis inhibitor project, purified and synthesized samples, set 3 (AID 504684). The following applies: […]. Type of test: functional.
Test [31] deals with T5, Interleukin-8 (Homo sapiens, UniProt P10145).
T5 sequence (P10145 whole entry): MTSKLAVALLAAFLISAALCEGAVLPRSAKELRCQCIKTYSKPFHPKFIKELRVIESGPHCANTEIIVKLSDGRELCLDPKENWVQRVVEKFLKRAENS
Nature of the test: Dose Response confirmation of uHTS small molecule hits for cystic fibrosis induced NFkb Inhibitors in a PAF-induced IL8 counterscreen. The note with it: read-out: IC50_Mean. The class given is functional.

Chain of Melanocortin receptor 4 (P32245 whole entry): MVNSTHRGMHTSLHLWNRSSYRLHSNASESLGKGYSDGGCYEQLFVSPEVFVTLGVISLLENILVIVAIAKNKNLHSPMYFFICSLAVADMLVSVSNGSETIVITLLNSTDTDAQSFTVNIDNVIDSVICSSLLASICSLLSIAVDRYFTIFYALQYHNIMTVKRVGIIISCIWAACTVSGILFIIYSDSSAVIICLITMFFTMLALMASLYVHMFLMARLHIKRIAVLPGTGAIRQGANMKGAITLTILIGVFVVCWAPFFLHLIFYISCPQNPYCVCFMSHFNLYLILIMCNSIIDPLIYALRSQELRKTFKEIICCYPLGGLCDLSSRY

Take `CC(C)(C)OC(=O)NCc1ccc(NC(=O)c2nc[nH]c2C(=O)N[C@@H](Cc2ccccc2)C(=O)OCc2ccccc2)cc1`: in test [1], the IC50 was > 64.6 µM (inactive).
`CCN(c1ccccc1)S(=O)(=O)c1ccc(NC(=O)c2nc(S(C)(=O)=O)ncc2Cl)cc1`: the AC50 in [2] was 4.56 µM (active); in test [4] it was 5.28 µM (active); in [11], 0.562 µM (active); in test [13] it was 15.2 µM (active). Also, the EC50 in [3] and in test [10] was > 20 µM (inactive) each time. The IC50 in [5] was 7.96 µM (active); in test [6], 2.53 µM (active); in test [7] it was 6.22 µM (active); in [8], > 20 µM (inactive); in test [9], 3.48 µM (active); in [12], 8.24 µM (inactive). For the same compound, the IC50 in [14] is > 20 µM (inactive).
`CC(C)(C)OC(=O)NCc1ccc(NC(=O)c2[nH]cnc2C(=O)N[C@@H](Cc2ccccc2)C(=O)OCc2ccccc2)cc1`: in test [15], the IC50 is > 64.6 µM (inactive).
Take `Oc1ccc(C2CNCc3sccc32)cc1O` (configuration not stated): the values for the IC50 in test [16] and in test [18] were 4.33 µM (active) and > 29.9 µM (inactive), respectively. In addition, the EC50 in [17] was 0.752 µM (active); in test [19] it was > 29.9 µM (inactive); in [20], 92.5 µM (inactive); in [21], 0.452 µM (active). In addition, the half-maximal activity concentration (AC50) in test [22] is 11.2 µM (inconclusive).
Consider `COc1ccc(C(=O)NCCC2=CCCCC2)cc1OC1CCN(C(C)C)CC1`, for which the results for the IC50 in test [23], in test [24] and in [25] were 3.16 µM (active), 2.63 µM (active) and 16 µM (active), respectively.
With `O=C1OCCC1Sc1nc2ccccc2n1Cc1ccccc1` (configuration not stated), the figures for the IC50 in [15] and in test [1] were > 64.6 µM (inactive) and 10.9 µM (inactive), respectively.
For `CCOC(=O)Cc1c(Cl)cnn(Cc2cccc3ccccc23)c1=O`, the IC50 in test [26] was 10.9 µM (inactive); in test [27], 10.3 µM (inactive).
The matching figures for `N#CC(c1cccnc1)c1c(Cl)cnn(Cc2cccc3ccccc23)c1=O` (configuration not stated): 4.56 µM (active) and 0.975 µM (active).
Take `C#CCOCCOCCOCCNc1nc(N2CCN(C(=O)[C@H](CCCCN)n3cc([C@@H](N)CO)nn3)CC2)nc(N2CCN(C(=O)[C@H](Cc3ccc(O)cc3)n3cc([C@@H](N)CC(C)C)nn3)CC2)n1`: the concentration at half-maximal activity (AC50) in test [28] was 121 µM (active).
Turning to `Cc1[nH]c(SCc2ccccc2Cl)nc(=O)c1C`, the half-maximal cytotoxic concentration (CC50) in test [29] and in test [30] was > 100 µM (active) throughout.
`Nc1nccc(-c2ccc(-n3cnc4ccccc43)cc2)n1`: the IC50 in test [31] was 10.2 µM (inactive).
In the case of `O=[N+]([O-])c1cc(C(F)(F)F)cc([N+](=O)[O-])c1N1CCCNCC1`, the results for the IC50 in test [23] and in test [24] were 4.01 µM (active) and 10.2 µM (active), respectively.
